Active and inactive are the calls of the source.
Key:
[1] = cells; format: functional, cell-based
[2] = cells; format: functional, cell-based; remark: listed apart in the source
[3] = target: T1, Trace amine-associated receptor 1 (Homo sapiens, UniProt Q96RJ0); assay: Counterscreen for agonists of the human trace amine associated receptor 1 (hTAAR1): Fluorescence-based cell-based high throughput dose response assay to identify hTAAR1 agonist that also desensitize TAAR1 receptor response.; format: functional
T1 sequence (Q96RJ0 whole entry): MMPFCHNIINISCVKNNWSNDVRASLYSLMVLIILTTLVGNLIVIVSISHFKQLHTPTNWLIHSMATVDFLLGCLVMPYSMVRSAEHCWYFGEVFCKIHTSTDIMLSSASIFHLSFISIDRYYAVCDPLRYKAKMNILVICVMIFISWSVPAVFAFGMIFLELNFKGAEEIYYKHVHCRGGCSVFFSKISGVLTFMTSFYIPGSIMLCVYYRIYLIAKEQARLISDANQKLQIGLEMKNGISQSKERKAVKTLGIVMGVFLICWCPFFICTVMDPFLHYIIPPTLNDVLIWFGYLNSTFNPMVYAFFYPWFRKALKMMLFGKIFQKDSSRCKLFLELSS

[4] = target: T1, Trace amine-associated receptor 1; assay: Fluorescence-based cell-based high throughput dose response assay to identify agonists of the human trace amine associated receptor 1 (TAAR1).; format: functional
[5] = viability of uninfected HEp-2 cells – cell-based, HTS, cytotoxicity control for RSV inhibitor project, dose response (AID 2410); format: functional; conditions: human respiratory syncytial virus
[6] = target: Trypsin (Sus scrofa, UniProt P00761); assay: trypsin protease activity blockade – biochemical, quenched peptide fluorescence, cherry-pick, selectivity assay for Rce1 protease inhibitor project, dose response (AID 488789)
Sequence of Trypsin (P00761 whole entry): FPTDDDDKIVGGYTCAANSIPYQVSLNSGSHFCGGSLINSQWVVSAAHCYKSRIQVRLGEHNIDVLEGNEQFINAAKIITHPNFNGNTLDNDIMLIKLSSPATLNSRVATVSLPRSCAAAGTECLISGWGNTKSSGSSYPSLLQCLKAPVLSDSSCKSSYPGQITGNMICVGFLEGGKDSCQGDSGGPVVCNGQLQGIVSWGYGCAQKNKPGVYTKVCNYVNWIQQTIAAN

[7] = target: Glyceraldehyde-3-phosphate dehydrogenase (Homo sapiens, UniProt P04406)
Sequence of Glyceraldehyde-3-phosphate dehydrogenase (P04406 whole entry): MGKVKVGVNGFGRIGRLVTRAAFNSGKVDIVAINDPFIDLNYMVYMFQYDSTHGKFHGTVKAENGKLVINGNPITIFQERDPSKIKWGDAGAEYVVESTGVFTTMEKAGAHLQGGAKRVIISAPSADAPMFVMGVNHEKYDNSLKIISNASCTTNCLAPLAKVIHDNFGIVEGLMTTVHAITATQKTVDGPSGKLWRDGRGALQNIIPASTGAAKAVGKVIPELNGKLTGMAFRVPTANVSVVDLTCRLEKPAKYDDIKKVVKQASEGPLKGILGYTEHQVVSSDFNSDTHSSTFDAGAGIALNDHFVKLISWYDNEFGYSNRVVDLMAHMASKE

[8] = target: T2, Tyrosine-protein phosphatase non-receptor type 22 (Homo sapiens, UniProt Q9Y2R2); assay: inhibition of lymphoid tyrosine phosphatase LYP – biochemical, pCAP fluorogenic substrate, fluorescence, set 3, SAR follow-up (AID 449727); format: functional
T2 sequence (Q9Y2R2 whole entry): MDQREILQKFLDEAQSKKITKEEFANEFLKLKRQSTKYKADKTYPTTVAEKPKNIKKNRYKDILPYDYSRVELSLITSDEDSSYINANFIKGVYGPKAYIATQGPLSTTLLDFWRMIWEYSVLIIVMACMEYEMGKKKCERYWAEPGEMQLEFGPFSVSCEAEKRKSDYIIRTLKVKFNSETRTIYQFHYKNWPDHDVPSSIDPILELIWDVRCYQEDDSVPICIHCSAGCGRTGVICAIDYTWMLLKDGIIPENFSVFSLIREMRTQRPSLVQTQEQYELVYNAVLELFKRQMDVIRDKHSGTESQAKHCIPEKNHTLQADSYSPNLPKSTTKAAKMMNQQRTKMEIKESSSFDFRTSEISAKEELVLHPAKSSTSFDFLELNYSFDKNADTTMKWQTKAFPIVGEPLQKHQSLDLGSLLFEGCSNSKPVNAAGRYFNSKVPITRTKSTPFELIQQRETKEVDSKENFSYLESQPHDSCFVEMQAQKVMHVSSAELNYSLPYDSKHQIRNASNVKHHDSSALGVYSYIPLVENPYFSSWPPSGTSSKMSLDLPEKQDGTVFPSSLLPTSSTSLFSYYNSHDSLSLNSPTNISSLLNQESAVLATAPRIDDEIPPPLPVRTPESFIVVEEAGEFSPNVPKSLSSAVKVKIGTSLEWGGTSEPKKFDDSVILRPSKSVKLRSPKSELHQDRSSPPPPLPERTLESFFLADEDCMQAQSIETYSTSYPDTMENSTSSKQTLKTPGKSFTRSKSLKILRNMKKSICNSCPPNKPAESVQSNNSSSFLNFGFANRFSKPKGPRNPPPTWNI

[9] = target: Tyrosine-protein phosphatase non-receptor type 12 (Homo sapiens, UniProt Q05209); assay: SAR Selectivity Analysis of small molecule inhibitors of PEST using pCAP in a fluorescence assay. [Related pubchem assays (depositor defined):AID1779, AID1784, AID2135]; format: functional
Sequence of Tyrosine-protein phosphatase non-receptor type 12 (Q05209 whole entry): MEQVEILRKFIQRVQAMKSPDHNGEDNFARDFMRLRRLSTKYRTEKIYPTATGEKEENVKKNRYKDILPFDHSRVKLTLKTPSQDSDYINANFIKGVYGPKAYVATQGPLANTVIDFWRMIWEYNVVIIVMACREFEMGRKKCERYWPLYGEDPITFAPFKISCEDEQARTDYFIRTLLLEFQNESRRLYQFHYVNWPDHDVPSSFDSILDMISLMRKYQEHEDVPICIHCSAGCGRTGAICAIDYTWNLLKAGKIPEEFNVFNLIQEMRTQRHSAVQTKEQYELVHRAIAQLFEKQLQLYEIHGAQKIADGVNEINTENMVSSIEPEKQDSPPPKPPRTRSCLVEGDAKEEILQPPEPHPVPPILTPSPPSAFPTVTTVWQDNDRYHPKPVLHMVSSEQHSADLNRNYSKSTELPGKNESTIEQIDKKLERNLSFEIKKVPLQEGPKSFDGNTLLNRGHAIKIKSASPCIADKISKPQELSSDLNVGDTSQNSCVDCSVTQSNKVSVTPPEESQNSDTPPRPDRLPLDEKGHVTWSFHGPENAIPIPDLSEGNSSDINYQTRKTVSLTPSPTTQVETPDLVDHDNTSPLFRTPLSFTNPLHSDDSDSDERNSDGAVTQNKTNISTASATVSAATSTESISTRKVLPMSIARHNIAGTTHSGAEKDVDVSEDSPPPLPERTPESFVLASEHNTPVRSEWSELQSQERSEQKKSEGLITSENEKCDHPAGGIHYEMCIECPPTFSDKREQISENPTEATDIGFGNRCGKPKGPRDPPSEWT

[10] = target: T2, Tyrosine-protein phosphatase non-receptor type 22; assay: SAR LYP1 Fluorescent Assay using OMFP substrate for In Vitro dose response studies - Set 3. [Related pubchem assays (depositor defined):AID1779, AID1784, AID2140, AID2686]; format: functional
[11] = target: T3, Neuropeptides B/W receptor type 1 (Homo sapiens, UniProt P48145); assay: human NPBW1 receptor blockade, IC50 – cell-based, fluorescence, dose response, late-stage follow-up (AID 463251); format: functional
T3 sequence (P48145 whole entry): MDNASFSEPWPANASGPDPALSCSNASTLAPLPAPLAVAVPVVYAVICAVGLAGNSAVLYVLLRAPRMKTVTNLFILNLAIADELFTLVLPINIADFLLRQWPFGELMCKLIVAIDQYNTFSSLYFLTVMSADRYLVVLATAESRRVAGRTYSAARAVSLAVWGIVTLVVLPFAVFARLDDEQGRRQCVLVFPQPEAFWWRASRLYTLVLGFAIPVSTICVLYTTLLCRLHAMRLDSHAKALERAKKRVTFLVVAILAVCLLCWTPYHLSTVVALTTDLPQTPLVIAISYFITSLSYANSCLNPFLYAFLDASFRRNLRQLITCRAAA

[12] = target: Melanin-concentrating hormone receptor 1 (Homo sapiens, UniProt Q99705); assay: Late-stage fluorescence-based counterscreen for antagonists of the G-protein coupled receptor 7 (GPR7): cell-based dose response assay to identify antagonists of the melanin-concentrating hormone receptor 1 (MCHR1). [Related pubchem assays (depositor defined):AID1861, AID1880, AID1952, AID2148, AID2251, AID2257, AID485339]; format: functional;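 also: stimulated with 30 nM MCH peptide agonist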
Sequence of Melanin-concentrating hormone receptor 1 (Q99705 whole entry): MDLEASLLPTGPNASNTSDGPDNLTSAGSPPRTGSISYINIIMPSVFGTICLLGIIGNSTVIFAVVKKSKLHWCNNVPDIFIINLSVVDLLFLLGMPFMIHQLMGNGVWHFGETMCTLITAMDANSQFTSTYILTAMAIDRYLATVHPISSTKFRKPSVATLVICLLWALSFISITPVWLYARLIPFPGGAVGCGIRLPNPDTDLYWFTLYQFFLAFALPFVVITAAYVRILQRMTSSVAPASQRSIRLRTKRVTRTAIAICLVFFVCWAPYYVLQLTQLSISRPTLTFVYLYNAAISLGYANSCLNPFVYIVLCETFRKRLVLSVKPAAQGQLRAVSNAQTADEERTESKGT

[13] = system: HEK293; assay: membrane integrity loss in HEK cells – cell-based, fluorescence, cytotoxicity control for IDE activator project, dose response (AID 588440); format: functional; conditions: Homo sapiens;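 also: cytotoxicity by LDH release measuring loss of membrane integrity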
[14] = target: T4, Insulin-degrading enzyme (Homo sapiens, UniProt P14735); assay: recombinant IDE activation, cell-free – biochemical, fluorescence polarization, counter-screen for IDE activator project, dose response (AID 588681)
T4 sequence (P14735 whole entry): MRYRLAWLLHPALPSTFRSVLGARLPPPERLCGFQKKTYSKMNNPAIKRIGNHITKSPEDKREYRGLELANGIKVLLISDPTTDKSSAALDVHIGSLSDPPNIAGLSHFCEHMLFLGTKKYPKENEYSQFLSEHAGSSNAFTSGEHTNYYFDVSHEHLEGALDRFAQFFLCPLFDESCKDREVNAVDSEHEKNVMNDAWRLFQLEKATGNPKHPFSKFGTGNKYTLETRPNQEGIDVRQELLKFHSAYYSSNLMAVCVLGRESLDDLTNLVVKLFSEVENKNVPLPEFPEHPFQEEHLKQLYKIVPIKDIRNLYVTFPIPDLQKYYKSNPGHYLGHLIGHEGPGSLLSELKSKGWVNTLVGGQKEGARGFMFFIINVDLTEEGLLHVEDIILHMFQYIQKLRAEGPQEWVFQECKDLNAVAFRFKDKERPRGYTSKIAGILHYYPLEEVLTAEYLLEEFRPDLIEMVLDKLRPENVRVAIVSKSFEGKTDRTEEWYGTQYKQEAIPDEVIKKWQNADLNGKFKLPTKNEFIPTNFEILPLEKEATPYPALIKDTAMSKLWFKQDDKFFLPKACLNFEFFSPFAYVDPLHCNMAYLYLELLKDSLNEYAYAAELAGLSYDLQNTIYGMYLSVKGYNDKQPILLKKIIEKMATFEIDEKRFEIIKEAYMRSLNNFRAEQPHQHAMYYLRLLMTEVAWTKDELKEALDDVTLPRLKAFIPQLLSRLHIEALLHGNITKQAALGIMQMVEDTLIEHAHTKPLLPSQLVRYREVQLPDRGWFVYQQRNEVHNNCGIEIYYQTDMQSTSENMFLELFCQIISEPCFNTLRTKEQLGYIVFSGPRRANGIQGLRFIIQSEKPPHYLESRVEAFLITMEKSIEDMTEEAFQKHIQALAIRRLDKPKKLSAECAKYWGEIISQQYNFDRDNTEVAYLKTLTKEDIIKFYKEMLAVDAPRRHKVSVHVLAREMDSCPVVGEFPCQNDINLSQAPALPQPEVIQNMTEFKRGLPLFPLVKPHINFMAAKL

[15] = target: T4, Insulin-degrading enzyme; assay: cellular IDE activation of Abeta substrate cleavage – fluorescence polarization, HEK cells, dose response (AID 588439); format: functional, cell-based
[16] = target: Protein Rev (Human immunodeficiency virus type 1 group M subtype B (isolate HXB2)(HIV-1), UniProt P04618); assay: blockers of HIV Rev/RRE RNA complex – biochemical, fluorescence polarization, HIV-1, dose response (AID 434976); design: species or system Human immunodeficiency virus 1
Sequence of Protein Rev (P04618 whole entry): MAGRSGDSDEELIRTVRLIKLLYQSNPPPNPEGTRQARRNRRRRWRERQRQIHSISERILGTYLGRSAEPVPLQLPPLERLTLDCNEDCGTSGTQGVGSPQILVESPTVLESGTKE

[17] = system: HEK293; assay: optical interference in Abeta FP readout, dose response, artefact control for IDE activator project, biochemical, fluorescence polarization (AID 588442); format: functional, cell-based; conditions: Homo sapiens
[18] = target: Female germline-specific tumor suppressor gld-1 (Caenorhabditis elegans, UniProt Q17339); assay: blockers of GLD-1/TGE RNA complex formation – biochemical, fluorescence polarization, C. elegans, dose response (AID 2802);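 also: fluorescence polarization of labeled TGE RNA bound by purified gld-1 protein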
Sequence of Female germline-specific tumor suppressor gld-1 (Q17339 whole entry): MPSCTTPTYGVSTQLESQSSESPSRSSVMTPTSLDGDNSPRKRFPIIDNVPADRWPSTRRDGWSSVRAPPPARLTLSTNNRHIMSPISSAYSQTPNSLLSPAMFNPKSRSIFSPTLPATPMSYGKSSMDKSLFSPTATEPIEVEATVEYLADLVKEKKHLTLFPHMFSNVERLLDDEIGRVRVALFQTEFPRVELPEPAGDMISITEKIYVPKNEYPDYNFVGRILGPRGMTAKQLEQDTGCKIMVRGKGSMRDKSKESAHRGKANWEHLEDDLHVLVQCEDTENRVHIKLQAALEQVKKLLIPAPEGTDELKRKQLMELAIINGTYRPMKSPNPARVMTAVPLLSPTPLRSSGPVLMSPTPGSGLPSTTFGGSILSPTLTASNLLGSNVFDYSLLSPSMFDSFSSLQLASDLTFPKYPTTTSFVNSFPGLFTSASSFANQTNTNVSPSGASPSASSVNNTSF

## O=C(NCC1CC1)c1ccc(Nc2nc3cc(Br)ccc3[nH]2)cc1
[1]
  EC50: > 29.9 µM (inactive)
[2]
  IC50: 14.5 µM (inactive)
[3]
  IC50: 2.09 µM (active)
[4]
  EC50: 14.6 µM (inactive)
[5]
  CC50: 7.81 µM (active)
[6]
  AC50: 9.83 µM (active)

## COc1ccc(/C=C2\SC(=S)N(C(CC(=O)O)C(=O)O)C2=O)cc1 (stereo not drawn)
[7]
  IC50: > 100 µM (not active)
[8]
  IC50: > 100 µM (inactive)
[9]
  IC50: > 100 µM (inactive)
[10]
  IC50: > 100 µM (inactive)

## Cc1ccc(CN2CCCCC2C(=O)N2CCN(c3ccc([N+](=O)[O-])cc3)CC2)cc1 (stereo not drawn)
[11]
  IC50: 9 µM (active)
[12]
  IC50: 5.8 µM (active)

## O=C(O)c1ccccc1N=Nc1ccc(O)cc1
[13]
  IC50: > 89.2 µM (inactive)
[14]
  EC50: 26.9 µM (inactive)
[15]
  EC50: 22.3 µM (inactive)
[16]
  IC50: 22 µM (not active)
[17]
  EC50: 50.3 µM (inactive)
[18]
  IC50: 8.4 µM (active)

Reference: ChEMBL document CHEMBL1201862, “PubChem BioAssay data set” (2004)
